Source: patent US7968526B2, “Antisense oligonucleotides directed to ribonucleotide reductase R2 and uses thereof in the treatment of cancer” (Lorus Therapeutics Inc., priority 2003, dated 2011)
“Also recorded” adds a separate entry of the source.

Legend:
[1] = tested on: MDA-MB-231 human breast cancer cells; assay: MDA-MB-231 breast tumour growth in CD-1 nude mice (3.3); type: in vivo, human cells in mice
Method: Treatments lasted for 14 days thereafter. Antitumour activities were estimated by the inhibition of tumour volume, which was measured with a caliper on four different occasions over the treatment period. Each point represents mean tumour volume calculated from 5 animals per experimental group. […] Control animals (control) received saline alone for the same period. At the end of the treatments, the animals were sacrificed, tumours were excised and their weights were measured. Each bar represents mean tumour weight calculated from 6 animals per experimental group. […] Treatments lasted for 24 days thereafter. Antitumour activities were estimated by the inhibition of tumour volume, which was measured with a caliper at two-day intervals over the treatment period. Each point represents mean tumour volume calculated from 4 animals per experimental group. […] Treatments lasted for 24 days thereafter. Antitumour activities were estimated by the inhibition of tumour volume, which was measured with a caliper at two-day intervals over the treatment period. Each point represents mean tumour volume calculated from 4 animals per experimental group. […] Each point represents mean tumour volume calculated from 5 animals per experimental group. […] Antitumour activities were estimated by the inhibition of tumour volume, which was measured with a caliper on four different occasions over 16-day period. Each point represents mean tumour volume calculated from 5 animals per experimental group. […] Antitumour activities were estimated by the inhibition of tumour volume, which was measured with a caliper at two-day intervals over the treatment period. Each point represents mean tumour volume calculated from 5 animals per experimental group. […] Antitumour activities were estimated by the inhibition of tumour volume, which was measured with a caliper at various time intervals over the span of 30 days. Each point represents mean tumour volume calculated from 6 animals per experimental group. […] Antitumour activities were estimated by the inhibition of tumour volume, which was measured with a caliper. […]

[2] = tested on: C8161 human melanoma cells; assay: Experimental metastasis of C8161 cells treated ex vivo, lung nodules in CD-1 nude mice (4.2); set-up: species or system human cells in mice
Method: • 4.1 Experimental metastasis of mouse fibrosarcoma (R3) cells treated with different antisense oligonucleotides in a syngenetic model was estimated as follows. Aliquots of R3 cell suspension were seeded into 100 mm tissue culture dishes at a density of 2×10^6 and incubated overnight at 37° C. in α-MEM medium supplemented with 10% FBS. Cells were washed once in 10 ml of PBS and treated with 0.2 μM of SEQ ID NO: 1 in the presence of cationic lipid (Lipofectin reagent, final concentration, 10 μg/ml, Gibco BRL) for 4 hr. Cells were treated with either saline alone (C) or lipofectin alone (RE) as controls. Oligonucleotide was removed by washing the cells once with PBS and the cells were trypsinized. Cells were then collected by centrifugation, and approximately 1×10^5 cells suspended in 0.2 ml of PBS were injected into the tail veins of 10 week-old C3H female mice. Estimates of the number of lung tumours were made 20 days later, after excised lungs from individual mice were stained with picric acid dye solution (75% picric acid, 20% formaldehyde, 5% glacial acetic acid). Bars represent mean number of tumour nodules in lungs obtained from 4 to 5 animals per experimental group. […] Aliquots of C8161 cell suspension were seeded into 100 mm tissue culture dishes at a density of 2×10^6 and incubated overnight at 37° C. in α-MEM medium supplemented with 10% FBS. […]

[3] = tested on: CB7 Friend retrovirus-induced mouse Erythroleukaemia cells; assay: Survival of SCID mice bearing mouse erythroleukaemia (CB7); type: in vivo; conditions: 10 mg/kg i.v. every second day, stopped at day 71, untreated all died within 36 days

5′-GGCTAAATCGCTCCACCAAG-3′ (all phosphorothioate, sugars by position and methylation of C not given here) [SEQ ID NO: 1, fully phosphorothioated antisense oligonucleotide that hybridizes to the coding region of R2 mRNA]
Inhibition of tumour size ([1]; Human Breast Adenocarcinoma): Inhibition of tumour size by approximately 80% | Inhibition of tumour weight ([1]; Human Breast Adenocarcinoma, Day 31 after tumour implantation): ~80% on Day 31 after tumour implantation | Inhibitory effect on tumour growth (tumour volume, FIG. 18B) ([1]; MDA-MB-231, CD-1 nude mice, 10 mg/kg i.v. every other day, 24 days): strong inhibitory effects on the growth of human breast carcinoma | Formation of lung colonies / nodules ([2]; C8161 cells treated with 0.2 μM + Lipofectin for 4 hr before i.v. injection into CD-1 nude mice): significantly reduced the formation of lung colonies; also recorded: significantly reduces the extent of lung nodule formation | Decrease in the number of tumour metastases to lungs ([2]; Human Melanoma (ex vivo and in vivo)): Decrease by approximately 95% in the number | Survival of mice [3]: survived beyond day 71 except one mouse, which died at day 22
